Test results taken from paper PMC5111430 (ACS chemical biology, 2016).
Blank lines part the entries; values can stand above or below the molecule they belong to.

Key:
[1] = target: Recombinant human Hsp70 and DnaJA2 (Homo sapiens, UniProt P0DMV8); test: Hsp70 ATPase malachite green assay; format: biochemical; conditions: 1 µM Hsp70, 1 µM DnaJA2, 1 mM ATP, 30 min preincubation, 3 h
HEK293T cells = test: LDH cytotoxicity assay; format: cell-based, human; conditions: increasing concentrations, 24 h, relative to DMSO
WT4R0N tau = format: cell-based, human; conditions: HEK293T, transient WT4R0N tau, 24 h; for effect on tau levels (tau aggregation inhibitor scaffolds): increasing concentrations; for effect on tau levels (Hsp70 inhibitor scaffolds): increasing concentrations up to 30 µM
[2] = target: 4R0N human recombinant tau (Homo sapiens, UniProt P10636, P618L); test: In vitro tau aggregation, thioflavin T fluorescence assay; format: biochemical; conditions: for effect on tau aggregation levels in vitro: ThT fluorescence, heparin-induced, 24 h
4R0N human recombinant tau, sequence (P10636 1-383 isoform P10636-6 P243L): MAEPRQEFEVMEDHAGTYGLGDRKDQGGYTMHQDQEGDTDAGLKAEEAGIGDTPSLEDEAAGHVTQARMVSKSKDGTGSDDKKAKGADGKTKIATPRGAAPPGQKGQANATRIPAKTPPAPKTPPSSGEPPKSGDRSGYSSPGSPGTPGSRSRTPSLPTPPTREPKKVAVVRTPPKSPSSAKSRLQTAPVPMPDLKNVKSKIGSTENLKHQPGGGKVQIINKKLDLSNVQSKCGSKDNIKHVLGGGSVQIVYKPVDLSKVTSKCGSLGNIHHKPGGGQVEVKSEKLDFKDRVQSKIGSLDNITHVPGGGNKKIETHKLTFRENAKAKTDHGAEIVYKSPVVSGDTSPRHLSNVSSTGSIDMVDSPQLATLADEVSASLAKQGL

human recombinant tau = human recombinant tau (Homo sapiens, UniProt P10636, P618L); test: Nondenaturing gel electrophoresis of ThT samples, high molecular weight tau; format: biochemical; conditions: ThT samples incubated with 30 µM compound
human recombinant tau, sequence (P10636 1-383 isoform P10636-6 P243L): as above

[3] = target: recombinant human P301L tau (Homo sapiens, UniProt P10636, P618L); test: Hydrogen peroxide production assay; format: biochemical; conditions: recombinant tau (10 µM) with 30 µM compound vs vehicle
recombinant human P301L tau, sequence (P10636 1-383 isoform P10636-6 P243L): as above

Recombinant human Hsp70 and DnaJA2, sequence (P0DMV8 whole entry): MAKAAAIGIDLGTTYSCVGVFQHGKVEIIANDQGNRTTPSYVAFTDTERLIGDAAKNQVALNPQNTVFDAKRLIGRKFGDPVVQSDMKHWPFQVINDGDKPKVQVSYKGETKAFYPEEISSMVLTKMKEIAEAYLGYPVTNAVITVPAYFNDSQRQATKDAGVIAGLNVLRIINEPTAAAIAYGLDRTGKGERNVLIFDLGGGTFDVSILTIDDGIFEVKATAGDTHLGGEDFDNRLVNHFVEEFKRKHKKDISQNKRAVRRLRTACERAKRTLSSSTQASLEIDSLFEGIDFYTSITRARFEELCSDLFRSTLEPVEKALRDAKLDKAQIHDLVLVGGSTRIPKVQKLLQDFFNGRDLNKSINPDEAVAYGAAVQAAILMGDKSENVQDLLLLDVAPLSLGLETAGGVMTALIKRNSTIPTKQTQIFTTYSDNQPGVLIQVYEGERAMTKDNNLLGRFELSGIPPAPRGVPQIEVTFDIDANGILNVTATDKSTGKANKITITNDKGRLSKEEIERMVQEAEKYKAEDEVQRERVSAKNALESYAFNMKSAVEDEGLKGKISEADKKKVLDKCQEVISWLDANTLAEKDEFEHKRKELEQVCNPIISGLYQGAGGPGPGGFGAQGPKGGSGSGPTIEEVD

Molecule: 2-((Z)-5-((5-(3- chlorophenyl)furan -2-yl)methylene)-4-oxo-2- thioxothiazolidin-3- yl)ethanoic acid [rhodanine]
Hsp70 ATPase activity [1]: inhibited Hsp70 ATPase activity

Molecule: 2-Phenylethynesulfonamide
LDH cytotoxicity (HEK293T cells): high toxicity relative to the other compounds

Molecule: Nc1scc2c(C(=O)NC3CC3)nn(-c3ccc(Cl)cc3)c(=O)c12 [ATPZ, 5-amino-3-(4-chlorophenyl)-N-cyclopropyl-4-oxo-3,4-dihydrothieno[3,4-d]pyridazine-1-carboxamide]
effect on tau levels (tau aggregation inhibitor scaffolds) (WT4R0N tau): did not lead to tau lowering

effect on tau aggregation levels in vitro [2]: increased tau aggregation levels
Molecule: N#Cc1ccc(COC[C@H]2O[C@@H](n3c(NCc4ccc(Cl)c(Cl)c4)nc4c(N)ncnc43)[C@H](O)[C@@H]2O)cc1 [adenosine analog, 5'-O-[(4-Cyanophenyl)methyl]-8-[[(3,4-dichlorophenyl)methyl]amino]-adenosine]
effect on tau levels (Hsp70 inhibitor scaffolds) (WT4R0N tau): increased tau levels

Molecule: O=C1c2ccc(O)c(O)c2C(=O)c2c(O)ccc(O)c21 [anthraquinone, 1,2,5,8-Tetrahydroxy-9,10-anthraquinone, 1,2,5,8-Tetrahydroxyanthraquinone]
effect on tau levels at 30 µM (WT4R0N tau; 30 µM): effectively lowered tau levels
effect on tau levels (tau aggregation inhibitor scaffolds) (WT4R0N tau): lowered tau levels

IC50 [2]: 22.7 µM
Molecule: CC1=C(C(=O)OCc2ccccc2)C(c2ccc(-c3ccccc3)cc2)NC(=O)N1CCCCCC(=O)O (centres unmarked) [dihydropyrimidine, 4-[1,1'-Biphenyl]-4-yl-3,4-dihydro-6-methyl-2-oxo-5-[(phenylmethoxy)carbonyl]-1(2H)-pyrimidinehexanoic acid]

Molecule: CN(C)c1ccc2nc3ccc(N(C)C)cc3[s+]c2c1.[Cl-] [phenothiazine, 3,7-bis(Dimethylamino)phenazat hionium chloride]
effect on high molecular weight tau (human recombinant tau): most potently reduced high molecular weight tau

effect on tau aggregation levels in vitro [2]: increased tau aggregation levels
Molecule: CCCn1c(NC(=O)[C@H]2CCCN(c3cnccn3)C2)nc2ccccc21 [piperidine-3-carboxamide, (S)-N-(1-propyl-1H-benzimidazol-2-yl)-1-(2-pyrazinyl)piperidine-3-carboxamide]
effect on tau levels (Hsp70 inhibitor scaffolds) (WT4R0N tau): increased tau levels

IC50 [2]: 0.813 µM
production of hydrogen peroxide [3]: no significant differences
Molecule: CCn1c(=O)/c(=C2\Sc3cc(Cl)ccc3N2C)s/c1=C\c1scc[n+]1Cc1ccccc1.[Cl-] [rhodacyanine, 3-benzyl-2-((Z)-((E)-5-(6-chloro-3-methylbenzo[d]thiazol-2(3H)-ylidene)-3-ethyl-4-oxothiazolidin-2-ylidene)methyl)thiazol-3-ium chloride]
effect on high molecular weight tau (human recombinant tau): most potently reduced high molecular weight tau
